The values below come from patent US20150025077A1 (COYOTE PHARMACEUTICALS, INC., priority 2012, published 2015).

The first assay deals with HSP70. In words: HSP70 levels in Neuro 2a cells, ELISA. The format is cell-based, mouse. Particulars: 100 nM, 48 hrs compound then 24 hrs GGTI-298. The procedure: Mouse neuroblastoma 2a cells were cultured in DMEM with 10% FBS for 24 hrs. […] After 24 hrs cells were harvested and lysates were prepared and analyzed by ELISA for HSP70. Compound ID numbers in table refer to structures in Table 1 and Table 2.
On to `CC(C)=CCC/C(C)=C/CC/C(C)=C/CC/C(C)=C/CCC(C)OC(=O)NC(C)C` (racemic) [Compound 23a, 5E, 9E, 13E-Geranylgeranyl-rac-prop-2-yl iso-propyl carbamate], for which the “HSP70 level, ELISA signal (absence of compounds normalized as 1.00)” value was found to be 1.21.

`CCCCCNC(=O)OC(C)CC/C=C(\C)CC/C=C(\C)CC/C=C(\C)CCC=C(C)C` (racemic) [Compound 23b, 5E, 9E, 13E-Geranylgeranyl-rac-prop-2-yl n-pentyl carbamate]: the “HSP70 level, ELISA signal (absence of compounds normalized as 1.00)” value stood at 1.13.

For `CC(C)=CCC/C(C)=C/CC/C(C)=C/CC/C(C)=C/CCC(C)OC(=O)NC1CCCC1` (racemic) [Compound 23c, Cyclopentyl 5E, 9E, 13E-geranylgeranyl-rac-prop-2-yl carbamate], the “HSP70 level, ELISA signal (absence of compounds normalized as 1.00)” value is reported as 0.96.

As for `CC(C)=CCC/C(C)=C/CC/C(C)=C/CC/C(C)=C/CCC(C)OC(=O)NC1CCCCCC1` (racemic) [Compound 23e, Cycloheptyl 5E, 9E, 13E-geranylgeranyl-rac-prop-2-yl carbamate], the “HSP70 level, ELISA signal (absence of compounds normalized as 1.00)” value is 0.97.

Take `CCCCCCNC(=O)OC(C)CC/C=C(\C)CC/C=C(\C)CC/C=C(\C)CCC=C(C)C` (racemic) [Compound 23f, 5E, 9E, 13E-Geranylgeranyl-rac-prop-2-yl n-hexyl carbamate]: the “HSP70 level, ELISA signal (absence of compounds normalized as 1.00)” value came out at 0.91.

In the case of `CC(C)=CCC/C(C)=C/CC/C(C)=C/CC/C(C)=C/COC(=O)NCc1ccco1` [Compound 7aa, 2′-Furanyl methyl 2E, 6E, 10E]-geranylgeranyl carbamate], the “HSP70 level, ELISA signal (absence of compounds normalized as 1.00)” value was determined as 1.05.

`CC(C)=CCC/C(C)=C/CC/C(C)=C/CC/C(C)=C/COC(=O)Nc1ccccc1` [Compound 7n, Phenyl 2E, 6E, 10E-geranylgeranyl carbamate]: the “HSP70 level, ELISA signal (absence of compounds normalized as 1.00)” value is given as 1.20.

As to `COc1ccc(NC(=O)OC/C=C(\C)CC/C=C(\C)CC/C=C(\C)CCC=C(C)C)cc1OC` [Compound 7t, 3′,4′-Dimethoxyphenyl 2E, 6E, 10E-geranylgeranyl carbamate], the “HSP70 level, ELISA signal (absence of compounds normalized as 1.00)” value is 1.07.

Take `CC(C)=CCC/C(C)=C/CC/C(C)=C/CC/C(C)=C/COC(=O)Nc1ccc(C(=O)c2ccccc2)cc1` [Compound 7u, p-Benzoyl phenyl 2E, 6E, 10E-geranylgeranyl carbamate]: the “HSP70 level, ELISA signal (absence of compounds normalized as 1.00)” value was 1.03.

As for `CC(C)=CCC/C(C)=C/CC/C(C)=C/CC/C(C)=C/COC(=O)Nc1cccnc1` [Compound 7z, 3′-Pyridyl 2E, 6E,10E-geranylgeranyl carbamate], the “HSP70 level, ELISA signal (absence of compounds normalized as 1.00)” value was 0.96.

The assay is the same for the next values; noted with them: 10uM, 48 hrs compound then 24 hrs GGTI-298.
For `CC(C)=CCC/C(C)=C/CC/C(C)=C/CC/C(C)=C/COC(=O)c1cc([N+](=O)[O-])cc([N+](=O)[O-])c1` [Compound 2g, 2E, 6E, 10E-Geranylgeranyl-3′,5′-dinitrobenzoate], the “HSP70 level, ELISA signal (absence of compounds normalized as 1.00)” value is on record as 0.91.

As to `COc1cc(C(=O)OC/C=C(\C)CC/C=C(\C)CC/C=C(\C)CCC=C(C)C)cc(OC)c1OC` [Compound 2h, 2E, 6E, 10E-Geranylgeranyl-3′,4′,5′-trimethoxybenzoate], the “HSP70 level, ELISA signal (absence of compounds normalized as 1.00)” value was 0.94.

Turning to `CCOc1ccccc1C(=O)OC/C=C(\C)CC/C=C(\C)CC/C=C(\C)CCC=C(C)C` [Compound 2j, 2E, 6E, 10E-Geranylgeranyl-2′ethoxybenzoate], the “HSP70 level, ELISA signal (absence of compounds normalized as 1.00)” value is listed as 0.95.

`COc1ccc(C(=O)OC/C=C(\C)CC/C=C(\C)CC/C=C(\C)CCC=C(C)C)c(OC)c1` [Compound 2k, 2E, 6E, 10E-Geranylgeranyl-2′,4′-dimethoxybenzoate]: the “HSP70 level, ELISA signal (absence of compounds normalized as 1.00)” value turned out to be 0.88.

With `CC(C)=CCC/C(C)=C/CC/C(C)=C/CC/C(C)=C/COC(=O)c1c(C)cc(C)cc1C` [Compound 2l, 2E, 6E, 10E-Geranylgeranyl-2′,4′,6′trimethylbenzoate], the “HSP70 level, ELISA signal (absence of compounds normalized as 1.00)” value stood at 1.05.

Regarding `CC(C)=CCC/C(C)=C/CC/C(C)=C/COS(=O)(=O)c1ccccc1` [Compound 6a, 2E, 6E-Farnesyl benzenesulfonate], the “HSP70 level, ELISA signal (absence of compounds normalized as 1.00)” value is given as 1.11.

Take `CC(C)=CCC/C(C)=C/CC/C(C)=C/COS(=O)(=O)c1ccc(C)cc1` [Compound 6b, 2E, 6E-Farnesyl p-toluenesulfonate]: the “HSP70 level, ELISA signal (absence of compounds normalized as 1.00)” value is recorded as 1.18.

For `C=CCNC(=O)OC/C=C(\C)CC/C=C(\C)CC/C=C(\C)CCC=C(C)C` [Compound 7k, Allyl 2E, 6E, 10E-geranylgeranyl carbamate], the “HSP70 level, ELISA signal (absence of compounds normalized as 1.00)” value is 1.20.

As to `CC(C)=CCC/C(C)=C/CC/C(C)=C/CC/C(C)=C/COC(=O)NCc1ccccc1` [Compound 7l, Benzyl 2E, 6E, 10E-geranylgeranyl carbamate], the “HSP70 level, ELISA signal (absence of compounds normalized as 1.00)” value worked out at 1.10.

On to `CC(C)=CCC/C(C)=C/CC/C(C)=C/CC/C(C)=C/COC(=O)Nc1ccc(C)cc1` [Compound 7o, P-Tolyl 2E, 6E, 10E-geranylgeranyl carbamate], for which the “HSP70 level, ELISA signal (absence of compounds normalized as 1.00)” value turned out to be 1.15.

In the case of `CCOC(=O)CNC(=O)OC/C=C(\C)CC/C=C(\C)CC/C=C(\C)CCC=C(C)C` [Compound 7p, Ethoxycarbonyl methyl 2E, 6E, 10E-geranylgeranyl carbamate], the “HSP70 level, ELISA signal (absence of compounds normalized as 1.00)” value came to 1.00.

On to `CC(C)=CCC/C(C)=C/CC/C(C)=C/CC/C(C)=C/COC(=O)Nc1cccc2ccccc12` [Compound 7r, 1′-Naphthyl 2E, 6E, 10E-geranylgeranyl carbamate], for which the “HSP70 level, ELISA signal (absence of compounds normalized as 1.00)” value amounted to 0.89.

With `COc1cc(NC(=O)OC/C=C(\C)CC/C=C(\C)CC/C=C(\C)CCC=C(C)C)cc(OC)c1OC` [Compound 7v, 3′,4′,5′-Trimethoxyphenyl 2E, 6E, 10E-geranylgeranyl carbamate], the “HSP70 level, ELISA signal (absence of compounds normalized as 1.00)” value came to 1.13.

Turning to `CC(C)=CCC/C(C)=C/CC/C(C)=C/CC/C(C)=C/COC(=O)Nc1ccc2c(c1)Cc1ccccc1-2` [Compound 7x, 9′H-Fluoren-2′-yl isocyanate 2E, 6E, 10E-geranylgeranyl carbamate], the “HSP70 level, ELISA signal (absence of compounds normalized as 1.00)” value came out at 1.00.

For `CC(C)=CCC/C(C)=C/CC/C(C)=C/COC(=O)NC(C)C` [Compound 8a, iso-Propyl 2E,6E-farnesyl carbamate], the “HSP70 level, ELISA signal (absence of compounds normalized as 1.00)” value was determined as 1.33.

Consider `CC(C)=CCC/C(C)=C/CC/C(C)=C/COC(=O)NC1CCCC1` [Compound 8c, Cyclopentyl 2E, 6E-farnesyl carbamate], for which the “HSP70 level, ELISA signal (absence of compounds normalized as 1.00)” value stood at 1.46.

On to `CC(C)=CCC/C(C)=C/CC/C(C)=C/COC(=O)NC1CCCCCC1` [Compound 8d, Cycloheptyl 2E, 6E-farnesyl carbamate], for which the “HSP70 level, ELISA signal (absence of compounds normalized as 1.00)” value is 1.33.

For the compound `CC(C)=CCC/C(C)=C/CC/C(C)=C/COC(=O)NC12CC3CC(CC(C3)C1)C2` [Compound 8e, Adamantyl 2E, 6E-farnesyl carbamate], the “HSP70 level, ELISA signal (absence of compounds normalized as 1.00)” value was 1.09.

For `CCNC(=O)OC/C=C(\C)CC/C=C(\C)CCC=C(C)C` [Compound 8h, Ethyl 2E, 6E-farnesyl carbamate], the “HSP70 level, ELISA signal (absence of compounds normalized as 1.00)” value worked out at 0.86.
